# From patent US6878733B1, “Formulations for pharmaceutical agents ionizable as free acids or free bases” (Sugen, Inc., priority 1999, dated 2005)
# How the values were obtained:
# [1] = Solubility of in situ salts versus free acid; assay type: physicochemical
# [2] = Oral bioavailability of formulations in beagle dogs; assay type: in vivo; conditions: at higher doses in fasted conditions
# Experimental: The formulation described below enhance the oral bioaviability of COMPOUND IV in beagle dogs, a preclinical absorption model.
# Both formulations contain 50 mg/gm of Pluroanic F-68. The formulation at 50 mg/gm of COMPOUND IV contains 900 mgs of sesame oil and the one that contains 250 mg/gm of COMPOUND IV contains 700 mgs of sesame oil.
# AUC refers to the area under the curve of the plasma concentration time curve and represents oral bioavilability (BA). Higher AUC indicates higher BA.
# PDGF receptor = experiment: Inhibition of signal transduction via PDGF receptor
# SF767T human glioma = experiment: SC tumor xenograft growth, SF767T; assay type: in vivo, BALB/c nu/nu mice; conditions: IP in DMSO, 75 mg/kg/d daily
# Experimental: (§1) Medium was changed every two to three days.
# (§2) In most experiments, compound was administered daily.
# (§3) Tumor growth was measured using venier calipers. Tumor volumes were calculated as the produce of length x width x height.
# SF763T human glioma = experiment: SC tumor xenograft growth, SF763T; assay type: in vivo, BALB/c nu/nu mice; conditions: IP in DMSO, 75 mg/kg/d daily
# Experimental: as §1, §2, §3
# Flk-1/KDR = Flk-1/KDR (Homo sapiens, UniProt P35968); experiment: Inhibition of signal transduction via Flk-1/KDR
# physchem = assay type: physicochemical
# C6 rat glioma = experiment: SC tumor xenograft growth, C6, treatment from one day post-implantation; assay type: in vivo, BALB/c nu/nu mice; conditions: IP
# Experimental: as §2, §3
# A431 human epidermal = experiment: SC tumor xenograft growth, A431; assay type: in vivo, BALB/c nu/nu mice; conditions: IP in DMSO, 100 mg/kg/d daily
# Experimental: as §2, §3
# [3] = test system: EpH4-VEGF1 murine epithelial; experiment: SC tumor xenograft growth, EpH4-VEGF1; assay type: in vivo; conditions: IP in DMSO, 75 mg/kg/d daily
# Experimental: as §2, §3
# pH solubility profile = assay type: physicochemical; conditions: 0.1 M phosphate buffer, thermodynamic from solid
# Experimental: The solution was filtered, appropriate dilutions made and the concentration of the compound in the supernatant was analyzed by a reverse phase HPLC method.
# C6 cells = experiment: Efficacy on established C6 SC tumors; assay type: in vivo, athymic mice; conditions: IP 75 mg/kg/day, onset delayed until measurable tumors were present (Day 7)
# FGF receptor = experiment: Inhibition of signal transduction via FGF receptor
# A375 human melanoma = experiment: SC tumor xenograft growth, A375; assay type: in vivo; conditions: IP in DMSO, 75 mg/kg/d dosed 3x/week
# Experimental: as §2, §3
# Sequence of Flk-1/KDR (P35968 20-1356): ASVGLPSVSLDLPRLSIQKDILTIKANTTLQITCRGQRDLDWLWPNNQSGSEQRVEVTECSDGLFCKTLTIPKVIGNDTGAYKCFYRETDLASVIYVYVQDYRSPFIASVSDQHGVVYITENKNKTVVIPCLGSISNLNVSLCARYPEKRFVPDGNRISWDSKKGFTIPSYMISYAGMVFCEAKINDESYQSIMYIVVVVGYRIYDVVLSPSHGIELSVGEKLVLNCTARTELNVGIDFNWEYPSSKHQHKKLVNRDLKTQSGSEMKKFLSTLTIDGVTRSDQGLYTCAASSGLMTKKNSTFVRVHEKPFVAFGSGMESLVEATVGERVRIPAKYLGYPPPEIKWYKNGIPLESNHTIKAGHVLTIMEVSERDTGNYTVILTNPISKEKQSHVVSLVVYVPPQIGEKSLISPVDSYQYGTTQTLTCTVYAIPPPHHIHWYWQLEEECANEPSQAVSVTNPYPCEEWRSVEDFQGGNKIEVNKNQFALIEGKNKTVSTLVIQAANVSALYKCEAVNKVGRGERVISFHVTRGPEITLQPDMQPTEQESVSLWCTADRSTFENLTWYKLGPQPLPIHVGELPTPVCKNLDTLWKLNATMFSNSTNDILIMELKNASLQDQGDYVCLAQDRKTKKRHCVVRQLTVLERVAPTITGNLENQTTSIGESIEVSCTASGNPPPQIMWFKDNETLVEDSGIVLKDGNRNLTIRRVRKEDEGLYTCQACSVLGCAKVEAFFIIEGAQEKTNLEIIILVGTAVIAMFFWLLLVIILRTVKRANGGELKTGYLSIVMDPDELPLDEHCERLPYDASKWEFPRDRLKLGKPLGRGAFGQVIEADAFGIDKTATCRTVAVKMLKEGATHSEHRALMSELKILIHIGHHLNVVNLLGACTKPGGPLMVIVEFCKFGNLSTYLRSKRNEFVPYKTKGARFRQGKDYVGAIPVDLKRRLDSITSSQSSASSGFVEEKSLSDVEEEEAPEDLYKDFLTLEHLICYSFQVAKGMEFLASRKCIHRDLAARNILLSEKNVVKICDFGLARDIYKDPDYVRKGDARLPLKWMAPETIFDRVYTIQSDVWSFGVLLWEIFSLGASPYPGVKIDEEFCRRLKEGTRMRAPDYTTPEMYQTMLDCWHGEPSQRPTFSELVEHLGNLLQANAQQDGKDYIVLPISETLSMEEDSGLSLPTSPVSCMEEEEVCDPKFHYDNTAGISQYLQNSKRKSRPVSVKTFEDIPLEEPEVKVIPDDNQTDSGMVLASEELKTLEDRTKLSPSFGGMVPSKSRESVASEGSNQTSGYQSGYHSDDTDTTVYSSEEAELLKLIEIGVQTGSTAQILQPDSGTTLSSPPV
compound,measurement,setting,value
"Cc1[nH]c(C=C2C(=O)Nc3ccccc32)c(C)c1CCC(=O)O [free acid, 3-[2,4-dimethyl-5-(2-oxo-1,2-dihydro-indol-3-ylidenemethyl)-1H-pyrrol-3-yl]-propionic acid]",solubility,"[1]; water, aqueous, sodium salt compared to free acid, read-out: solubility",< 100 µg/mL
same,solubility,"[1]; water, free acid, for comparison with the sodium salt, read-out: aqueous solubility",~30 µg/mL
"Cc1[nH]c(C=C2C(=O)Nc3ccccc32)c(C)c1CCC(=O)O [Meglumine, 3-[2,4-dimethyl-5-(2-oxo-1,2-dihydro-indol-3-ylidenemethyl)-1H-pyrrol-3-yl]-propionic acid]",solubility,"[1]; aqueous solution of the salt formed in situ, salt of 3-[2,4-dimethyl-5-(2-oxo-1,2-dihydro-indol-3-ylidenemethyl)-1H-pyrrol-3-yl]-propionic acid, in situ salt formation, pH in the column beside, read-out: Solubility",7900 µg/mL
"Cc1[nH]c(/C=C2\C(=O)Nc3ccccc32)c(C)c1CCC(=O)O [COMPOUND IV, 3-[2,4-dimethyl-5-(2-oxo-1,2-dihydro-indol-3-ylidenemethyl)-1H-pyrrol-3-yl]-propionic acid]",oral bioavailability,[2],low bioavailability
"Cc1[nH]c(C=C2C(=O)Nc3ccccc32)c(C)c1CCC(=O)O [3-[2,4-Dimethyl-5-(2-oxo-1,2-dihydro-indol-3-ylidenemethyl)-1H-pyrrol-3-yl]-propionic acid]",inhibitor of signal transduction via PDGF receptor,PDGF receptor,potent inhibitor
same,% Mortality,SF767T human glioma,12.5%
same,% Mortality,SF763T human glioma,12.5%
same,inhibitor of signal transduction via Flk-1/KDR,Flk-1/KDR,potent inhibitor
same,logP,physchem,3.85
same,pKa,physchem,5.02
same,logD,physchem; pH 7.4,1.5
same,% Inhibition (at day),"C6 rat glioma; 25 mg/kg Daily × 5, day 18, ns (P > 0.05)",1 (18) %
same,tumor growth inhibition,"C6 rat glioma; 100 mg/kg twice weekly or three times weekly, statistically significant",approximately 40%
same,% Mortality,A431 human epidermal,12.5%
same,% Mortality,[3],0%
same,solubility,"pH solubility profile; pH 6, aqueous buffer, pH of buffer 6.0 (0.1 M phosphate), average pH at equilibrium 6.06, two lots",2.4 µg/mL
same,solubility,"pH solubility profile; pH 6.5, aqueous buffer, pH of buffer 6.5 (0.1 M phosphate), average pH at equilibrium 6.52",4 µg/mL
same,solubility,"pH solubility profile; pH 7, aqueous buffer, pH of buffer 7.0 (0.1 M phosphate), average pH at equilibrium 6.96",9 µg/mL
same,solubility,"pH solubility profile; pH 7.4, aqueous buffer, pH of buffer 7.4 (0.1 M phosphate), average pH at equilibrium 7.39",19 µg/mL
same,efficacy on established tumors,C6 cells,efficacious
same,inhibitor of signal transduction via FGF receptor,FGF receptor,potent inhibitor
same,% Mortality,A375 human melanoma,0%
